Consider 60 molecules from patent publication US12502380B2, “MrgprX2 antagonists for the treatment of inflammatory disorders” (Dermira, Inc., priority 2019, dated 2025).

In the assay the target is T1, Human MrgprX2 (Homo sapiens, UniProt Q96LB1).
T1 construct: expressed in transfected cells
T1 sequence (Q96LB1 1-330): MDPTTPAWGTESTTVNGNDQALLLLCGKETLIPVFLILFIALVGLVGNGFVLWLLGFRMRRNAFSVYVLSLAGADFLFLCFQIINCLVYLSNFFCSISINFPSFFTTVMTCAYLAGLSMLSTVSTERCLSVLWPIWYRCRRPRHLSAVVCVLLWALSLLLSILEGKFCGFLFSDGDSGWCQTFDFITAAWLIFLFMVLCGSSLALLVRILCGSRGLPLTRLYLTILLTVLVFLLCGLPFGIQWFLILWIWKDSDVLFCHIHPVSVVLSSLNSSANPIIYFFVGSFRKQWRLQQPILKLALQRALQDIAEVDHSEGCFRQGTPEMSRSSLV
Kind of assay: Human MrgprX2 antagonist FLIPR intracellular calcium mobilization assay. To be noted: antagonist activity, recombinant hMrgpMRGPRX2 expressing cells, read-out: Human MrgprX2 Antagonist pIC50 (converted). Format: cell-based. The text has this:
Potent and selective hMrgpMRGPRX2 compounds have been generated from compounds identified during a high throughput screening (HTS) campaign and followed up with cycles of structure activity based medicinal chemistry efforts. These compounds were characterized in recombinant hMrgpMRGPRX2 expressing cells for their antagonist activity and the potency was confirmed in the human mast cell line LAD-2, where the target is endogenously expressed. The assays used to determine potencies are functional read-out looking at intracellular calcium mobilization using the FLIPR™ technology. In these FLIPR assays, we test the identified compounds using recombinant cellular systems expressing mouse MrgprB2, mouse MrgprA1, gerbil MrgpMRGPRX2 orthologue, Chinese hamster MrgpMRGPRX2 orthologue and cynomolgus monkey MrgpMRGPRX2 orthologue, respectively for orthologue activity.
As for `CCN(C[C@H](C)O)C(=O)Nc1ncc(Oc2ccc(CC#N)cc2)s1` [Compound E213], the IC50 is 1.26 µM.

For `NS(=O)(=O)N1CCC[C@@H]1C(=O)Nc1ncc(Oc2ccccc2)s1` [Compound E086, (2R)—N-(5-phenoxythiazol-2-yl)-1-sulfamoyl-pyrrolidine-2-carboxamide], the IC50 is 0.0158 µM.

Consider `COC(C)(C)C(=O)Nc1ncc(Cc2ccccc2F)s1` [Compound E019], for which the IC50 is 0.251 µM.

Take `CC(O)CN(CC(F)(F)F)C(=O)Nc1ncc(Cc2cccc(F)c2)s1` (stereo not drawn) [Compound E119]: the IC50 is 0.2 µM.

In the case of `O=C(Nc1ncc(Cc2ccccc2F)s1)C1CCOC1` (stereo not drawn) [Compound E008], the IC50 is 3.98 µM.

For `CC(C)(C)OC(=O)N1CCC[C@@H]1C(=O)Nc1ncc(Oc2ccccc2)s1` [Compound E082, tert-butyl (2R)-2-[(5-phenoxythiazol-2-yl)carbamoyl]pyrrolidine-1-carboxylate], the IC50 is 1.26 µM.

On to `C[C@H](O)CN(C)C(=O)Nc1ncc(Cc2ccc(F)c(F)c2)s1` [Compound E135], for which the IC50 was 0.0158 µM.

`CC[C@H](C(=O)Nc1ncc(Cc2cccc(F)c2)s1)N(C)S(N)(=O)=O` [Compound E069]: the IC50 was 1.58 µM.

As for `C[C@H](O)CN(C)C(=O)Nc1ncc(Cc2cccc(F)c2F)s1` [Compound E137], the IC50 was 0.01 µM.

For `CC1(C(=O)Nc2ncc(Cc3cccc(Cl)c3)s2)CCOC1` (stereo not drawn) [Compound E033, N-[5-[(3-chlorophenyl)methyl]thiazol-2-yl]-3-methyl-tetrahydrofuran-3-carboxamide], the IC50 was 0.0794 µM.

With `CCN(C[C@H](C)O)C(=O)Nc1ncc(Oc2ccc(F)cc2)s1` [Compound E154], the IC50 was 0.000631 µM.

In the case of `C[C@]1(C(=O)Nc2ncc(Cc3cccc(F)c3)s2)CCCN1S(N)(=O)=O` [Compound E063], the IC50 is 0.00316 µM.

For `CC1(C(=O)Nc2ncc(Cc3ccccc3F)s2)CCOCC1` [Compound E004], the IC50 was 0.398 µM.

Turning to `CCN1CCC[C@@H]1C(=O)Nc1ncc(Oc2ccc(C#N)cc2)s1` [Compound E088, (2R)—N-[5-(4-cyanophenoxy)thiazol-2-yl]-1-ethyl-pyrrolidine-2-carboxamide], the IC50 is 3.16 µM.

For `C[C@@]1(C(=O)Nc2ncc(Cc3cccc(F)c3)s2)CCOC1` (single isomer, unassigned) [Compound E048, N-[5-[(3-fluorophenyl)methyl]thiazol-2-yl]-3-methyl-tetrahydrofuran-3-carboxamide], the IC50 was 0.126 µM.

As to `CCN(C[C@H](C)O)C(=O)Nc1ncc(Oc2ccc(C)nc2)s1` [Compound E157], the IC50 is 0.126 µM.

With `CC(C)(CO)C(=O)Nc1ncc(Cc2ccccc2F)s1` [Compound E010], the IC50 is 1.26 µM.

Take `CC1(C(=O)Nc2ncc(Oc3cccc(F)c3)s2)CCOCC1` [Compound E070, N-[5-(3-fluorophenoxy)thiazol-2-yl]-4-methyl-tetrahydropyran-4-carboxamide]: the IC50 is 0.00501 µM.

Turning to `CCN(C[C@H](C)O)C(=O)Nc1nc(C)c(Oc2cc(F)cc(C#N)c2)s1` [Compound E209], the IC50 was 0.00316 µM.

On to `CCN(C[C@H](C)O)C(=O)Nc1cnc(Oc2cc(F)cc(F)c2)s1` [Compound E215], for which the IC50 was 7.94 µM.

Consider `NS(=O)(=O)N1CCC[C@@H]1C(=O)Nc1ncc(Oc2ccc(F)cc2)s1` [Compound E089, (2R)—N-[5-(4-fluorophenoxy)thiazol-2-yl]-1-sulfamoyl-pyrrolidine-2-carboxamide], for which the IC50 was 0.0251 µM.

Regarding `CC1(C(=O)Nc2ncc(Cc3cc(F)cc(F)c3)s2)CCOCC1` [Compound E044], the IC50 was 0.0158 µM.

`CC1(C(=O)Nc2ncc(Cc3cccc(Cl)c3)s2)COC1` [Compound E036]: the IC50 was 0.316 µM.

As to `CC(C)C(=O)Nc1nc(C#N)c(Oc2ccc(F)cc2)s1` [Compound E081], the IC50 was 2.51 µM.

Consider `CCN(C[C@H](C)O)C(=O)Nc1ncc(Cc2cccc(Cl)c2)s1` [Compound E098, 3-[5-[(3-chlorophenyl)methyl]thiazol-2-yl]-1-ethyl-1-[(2S)-2-hydroxypropyl]urea], for which the IC50 was 0.00316 µM.

For the molecule `C[C@H](O)CN(C)C(=O)Nc1ncc(Oc2cc(F)cc(C#N)c2)s1` [Compound E187], the IC50 was 0.00126 µM.

Take `C[C@H](O)CN(C)C(=O)Nc1ncc(Cc2cc(F)cc(F)c2)s1` [Compound E134]: the IC50 is 0.00158 µM.

On to `CCN(C[C@H](C)O)C(=O)Nc1ncc(Oc2cccc(F)c2C#N)s1` [Compound E199], for which the IC50 is 0.251 µM.

For the molecule `CN(CC(O)C(F)(F)F)C(=O)Nc1ncc(Cc2cccc(F)c2)s1` (stereo not drawn) [Compound E105], the IC50 is 0.0158 µM.

For `CCN(CC(C)O)C(=O)Nc1ncc(Cc2cccc(F)c2)s1` (stereo not drawn) [Compound E110], the IC50 is 0.000501 µM.

For `C[C@H](O)CN(C)C(=O)Nc1ncc(Cc2c(F)cccc2F)s1` [Compound E142], the IC50 is 1.58 µM.

In the case of `NS(=O)(=O)N1CC[C@@H]1C(=O)Nc1ncc(Cc2cccc(F)c2)s1` [Compound E065], the IC50 is 0.0794 µM.

As to `CCN(C[C@H](C)O)C(=O)Nc1ncc(Cc2cccc(F)c2)s1` [Compound E117], the IC50 was 0.000631 µM.

For the molecule `C[C@H]1CN(C(=O)Nc2ncc(Cc3cccc(F)c3)s2)CCO1` [Compound E107], the IC50 is 3.98 µM.

In the case of `CCN(C[C@H](C)O)C(=O)Nc1ncc(Oc2cncc(C#N)c2)s1` [Compound E173], the IC50 was 0.0316 µM.

With `CCN(C[C@H](C)O)C(=O)Nc1ncc(Oc2cccc(Cl)c2)s1` [Compound E153], the IC50 is 0.000794 µM.

With `CC1(C(=O)Nc2ncc(Cc3cccc(F)c3)s2)CCOC1` (stereo not drawn) [Compound E015, N-[5-[(3-fluorophenyl)methyl]thiazol-2-yl]-3-methyl-tetrahydrofuran-3-carboxamide], the IC50 is 0.126 µM.

Consider `C[C@@H](O)CN(C)C(=O)Nc1ncc(Cc2ccccc2F)s1` [Compound E103], for which the IC50 is 1.26 µM.

With `CC1(C(=O)Nc2ncc(Oc3cccc(Cl)c3)s2)CCOCC1` [Compound E079], the IC50 was 0.00398 µM.

Consider `C[C@]1(C(=O)Nc2ncc(Cc3cc(F)cc(F)c3)s2)CCOC1` (single isomer, unassigned) [Compound E053, N-[5-[(3,5-difluorophenyl)methyl]thiazol-2-yl]-3-methyl-tetrahydrofuran-3-carboxamide], for which the IC50 is 0.00794 µM.

On to `C[C@H](O)CN(C)C(=O)Nc1ncc(Oc2cc(C#N)ccc2F)s1` [Compound E194], for which the IC50 was 0.501 µM.

In the case of `O=C(Nc1ncc(Cc2cccc(F)c2)s1)N1CC[C@H](CO)C1` [Compound E112], the IC50 was 0.794 µM.

Turning to `NC(=O)[C@@H]1CCCN1C(=O)Nc1ncc(Cc2cccc(F)c2)s1` [Compound E131], the IC50 is 6.31 µM.

Consider `O=C(Nc1ncc(Cc2cccc(F)c2)s1)N1CCOC[C@H]1CO` [Compound E123], for which the IC50 is 7.94 µM.

For `O=C(Nc1ncc(Cc2cccc(F)c2)s1)C1CCCC1O` (stereo not drawn) [Compound E038], the IC50 is 1.58 µM.

As for `CC1(C(=O)Nc2ncc(Cc3ccccc3F)s2)CCN(S(C)(=O)=O)CC1` [Compound E060, N-[5-[(2-fluorophenyl)methyl]thiazol-2-yl]-4-methyl-1-methylsulfonyl-piperidine-4-carboxamide], the IC50 is 2.51 µM.

For `CCN(C[C@H](C)O)C(=O)Nc1ncc(Oc2ccnc(C#N)c2)s1` [Compound E181], the IC50 was 2.51 µM.

As to `C[C@H](O)CN(C)C(=O)Nc1ncc(Cc2ccc(F)cc2F)s1` [Compound E141], the IC50 is 0.0501 µM.

On to `O=C(Nc1ncc(Cc2cccc(F)c2)s1)N1CC(F)(F)C[C@@H]1CO` [Compound E127], for which the IC50 was 0.0398 µM.

As to `CCN(C[C@H](C)O)C(=O)Nc1ncc(Oc2cc(F)ccc2C#N)s1` [Compound E196], the IC50 is 0.316 µM.

`CC(C)(C(=O)Nc1ncc(Cc2ccccc2F)s1)N1CCOCC1` [Compound E003]: the IC50 was 0.0398 µM.

For the molecule `CC(C)NC(=O)c1cc(Cc2cc(F)cc(F)c2)on1` [Compound E221, 5-[(3,5-difluorophenyl)methyl]-N-isopropyl-isoxazole-3-carboxamide], the IC50 is 6.31 µM.

Regarding `CCN(C[C@H](C)O)C(=O)Nc1ncc(Oc2cccnc2)s1` [Compound E166], the IC50 is 0.1 µM.

Consider `CCN(C[C@H](C)O)C(=O)Nc1ncc(Oc2cncc(C(F)(F)F)c2)s1` [Compound E180], for which the IC50 was 0.251 µM.

On to `CN1CCC[C@H]1C(=O)Nc1ncc(Cc2cccc(F)c2)s1` [Compound E058, (2S)—N-[5-[(3-fluorophenyl)methyl]thiazol-2-yl]-1-methyl-pyrrolidine-2-carboxamide], for which the IC50 was 0.126 µM.

For the molecule `CC1(C(=O)Nc2ncc(Cc3ccccc3F)s2)CCN(S(N)(=O)=O)C1` (stereo not drawn) [Compound E064], the IC50 is 0.631 µM.

Turning to `CCN(C[C@H](C)O)C(=O)Nc1ncc(Oc2ccc(C(=O)OC)cc2)s1` [Compound E214], the IC50 was 3.16 µM.

On to `CC(C)C(=O)Nc1nc(-c2ccccc2)cs1` [Compound E039], for which the IC50 is 6.31 µM.

For the molecule `C[C@H](O)CN(C)C(=O)Nc1ncc(Oc2ccc(F)nc2)s1` [Compound E169], the IC50 was 0.251 µM.

As for `CN(C)C(C)(C)C(=O)Nc1ncc(Cc2ccccc2F)s1` [Compound E011], the IC50 is 0.501 µM.
